Series [1] concerns Escherichia coli. The series is described as follows: Antibacterial activity against Escherichia coli ATCC 25922 assessed as bacterial growth inhibition in presence of CAMHB medium by broth microdilution method. It counts as functional. (Broth dilution looks for growth in wells or tubes with falling amounts of substance.)
A short description of series [2]: Cytotoxicity against green monkey Vero cells incubated for 48 hrs by CCK-8 assay. The note with it: green monkey (Chlorocebus sabaeus). It counts as toxicity, cell-based.
The subject of another series is Pseudomonas aeruginosa. The series is described as follows: Antibacterial activity against Pseudomonas aeruginosa PAO1 assessed as bacterial growth inhibition in presence of CAMHB medium by broth microdilution method. It counts as functional.
Series [3] in a line: Cytotoxicity against dog MDCK cells incubated for 48 hrs by CCK-8 assay. Type of series: toxicity, cell-based. As to conditions: dog (Canis lupus familiaris). On the technique in general: Tetrazolium dyes change colour on reduction, which living cells bring about.
The test system of series [4] is Acinetobacter baumannii. The series is described as follows: Antibacterial activity against Acinetobacter baumannii ATCC 19606 assessed as bacterial growth inhibition in presence of CAMHB medium by broth microdilution method. It counts as functional.
A further series has as its system Klebsiella pneumoniae. The series is described as follows: Antibacterial activity against Klebsiella pneumoniae ATCC […] assessed as bacterial growth inhibition in presence of CAMHB medium by broth microdilution method. It counts as functional.
The subject of series [5] is Acinetobacter baumannii. The series is described as follows: Antibacterial activity against multi-drug resistant Acinetobacter baumannii 3 clinical isolate assessed as bacterial growth inhibition in presence of CAMHB medium by broth microdilution method. Type of series: functional.
The test system of series [6] is Escherichia coli. The series is described as follows: Antibacterial activity against multi-drug resistant Escherichia coli 4 clinical isolate assessed as bacterial growth inhibition in presence of CAMHB medium by broth microdilution method. It counts as functional.
For series [7], the system named is Acinetobacter baumannii. The series is described as follows: Antibacterial activity against multi-drug resistant Acinetobacter baumannii 5 clinical isolate assessed as bacterial growth inhibition in presence of CAMHB medium by broth microdilution method. Type of series: functional.
Series [8] has as its system Escherichia coli. The series is described as follows: Antibacterial activity against multi-drug resistant Escherichia coli 2 clinical isolate assessed as bacterial growth inhibition in presence of CAMHB medium by broth microdilution method. Type of series: functional.
The subject of series [9] is Acinetobacter baumannii. The series is described as follows: Antibacterial activity against multi-drug resistant Acinetobacter baumannii 1 clinical isolate assessed as bacterial growth inhibition in presence of CAMHB medium by broth microdilution method. Type of series: functional.
For series [10], the system named is Escherichia coli. The series is described as follows: Antibacterial activity against multi-drug resistant Escherichia coli 5 clinical isolate assessed as bacterial growth inhibition in presence of CAMHB medium by broth microdilution method. It counts as functional.
Series [11] deals with Acinetobacter baumannii. The series is described as follows: Antibacterial activity against multi-drug resistant Acinetobacter baumannii 4 clinical isolate assessed as bacterial growth inhibition in presence of CAMHB medium by broth microdilution method. Type of series: functional.
For series [12], the system named is Escherichia coli. The series is described as follows: Antibacterial activity against ESBL(+) producing Escherichia coli ATCC 35218 assessed as bacterial growth inhibition in presence of CAMHB medium by broth microdilution method. Type of series: functional.
For series [13], the system named is Escherichia coli. The series is described as follows: Antibacterial activity against multi-drug resistant Escherichia coli 3 clinical isolate assessed as bacterial growth inhibition in presence of CAMHB medium by broth microdilution method. It counts as functional.
In series [14] the test system is Escherichia coli. The series is described as follows: Antibacterial activity against multi-drug resistant Escherichia coli 1 clinical isolate assessed as bacterial growth inhibition in presence of CAMHB medium by broth microdilution method. Type of series: functional.
In series [15] the test system is Acinetobacter baumannii. The series is described as follows: Antibacterial activity against multi-drug resistant Acinetobacter baumannii 2 clinical isolate assessed as bacterial growth inhibition in presence of CAMHB medium by broth microdilution method. Type of series: functional.

Molecules are shown by their SMILES. In brackets after ≈: the same amount, converted by molar mass.

Take `COc1ccc(CCN2COc3c(cc(Cl)c4cccnc34)C2)cc1OC`: the MIC in the series with Escherichia coli [1] is 25 µg/mL.

`Fc1cc(CN2COc3c(cc(Cl)c4cccnc34)C2)cc(F)c1F`: the MIC in the series with Escherichia coli [1] is 25 µg/mL.

Regarding `Fc1cc2c(c3ncccc13)OCN(CCCCc1ccccc1)C2`, the IC50 at 48 h was found to be 36.1 µg/mL (≈ 107 µM) in series [2] and 29.3 µg/mL (≈ 87.1 µM) in series [3]. In addition, the MIC is 100 µg/mL in the series on Pseudomonas aeruginosa, 6.25 µg/mL in the series with Escherichia coli [1], 6.25 µg/mL with Acinetobacter baumannii [4] and above 100 µg/mL with Klebsiella pneumoniae.

As to `Fc1cc2c(c3ncccc13)OCN(CCc1ccc(Br)cc1)C2`, the MIC in the series on Acinetobacter baumannii [5] was 12.5 µg/mL; in the series with Escherichia coli [6], 50 µg/mL; with Acinetobacter baumannii [7] it was 6.25 µg/mL; with Escherichia coli [8], 50 µg/mL; with Acinetobacter baumannii [9], 12.5 µg/mL; in the series with Pseudomonas aeruginosa it was 100 µg/mL. For the same compound, the MIC was found to be 6.25 µg/mL in the series on Escherichia coli [1]; 50 µg/mL in the series on Escherichia coli [10]; 25 µg/mL in the series on Acinetobacter baumannii [11]; 25 µg/mL with Escherichia coli [12]; 3.12 µg/mL with Acinetobacter baumannii [4]; 50 µg/mL in the series on Escherichia coli [13]. The minimum inhibitory concentration (MIC) with Klebsiella pneumoniae came out at 100 µg/mL; in the series on Escherichia coli [14], 50 µg/mL; in the series on Acinetobacter baumannii [15] it was 3.12 µg/mL. For the same compound, the figures for the half-inhibitory concentration (IC50) at 48 h in series [2] and in series [3] were above 50 µg/mL and 44.9 µg/mL (≈ 116 µM), respectively.

Regarding `Clc1cc2c(c3ncccc13)OCN(CCCCc1ccccc1)C2`, the IC50 at 48 h in series [2] was above 50 µg/mL; in series [3] it was 33.8 µg/mL (≈ 95.9 µM). The MIC worked out at 100 µg/mL in the series with Pseudomonas aeruginosa, 12.5 µg/mL in the series on Escherichia coli [1], 3.12 µg/mL in the series with Acinetobacter baumannii [4] and 100 µg/mL in the series with Klebsiella pneumoniae.

Consider `Fc1cc2c(c3ncccc13)OCN(Cc1ccc(OC(F)(F)F)cc1)C2`, for which the MIC in the series on Escherichia coli [1] was determined as 25 µg/mL.

As to `Clc1ccc(CCN2COc3c(cc(Cl)c4cccnc34)C2)cc1`, the IC50 at 48 h in series [2] was above 50 µg/mL; in series [3] it was 39.7 µg/mL (≈ 110 µM). In addition, the MIC was 100 µg/mL with Pseudomonas aeruginosa, 12.5 µg/mL with Escherichia coli [1], 6.12 µg/mL in the series on Acinetobacter baumannii [4] and above 100 µg/mL in the series with Klebsiella pneumoniae.

Consider `Fc1ccc(CCN2COc3c(cc(F)c4cccnc34)C2)cc1`, for which the IC50 at 48 h in [2] amounted to 27.7 µg/mL (≈ 84.8 µM); in series [3] it was 15.8 µg/mL (≈ 48.3 µM). The MIC in the series with Pseudomonas aeruginosa amounted to 100 µg/mL; in the series with Escherichia coli [1], 12.5 µg/mL; in the series with Acinetobacter baumannii [4], 12.5 µg/mL; in the series on Klebsiella pneumoniae it was 100 µg/mL.

`FC(F)(F)Oc1ccc(CN2COc3c(cc(Cl)c4cccnc34)C2)cc1`: the MIC in the series on Escherichia coli [1] stood at 50 µg/mL.

As to `Fc1cc2c(c3ncccc13)OCN(CCc1ccccc1)C2`, the half-inhibitory concentration (IC50) at 48 h came out at 14.7 µg/mL (≈ 47.8 µM) in series [2] and 8.97 µg/mL (≈ 29.1 µM) in series [3]. Further, the MIC with Pseudomonas aeruginosa stood at 100 µg/mL; with Escherichia coli [1], 6.25 µg/mL; with Acinetobacter baumannii [4] it was 6.25 µg/mL; with Klebsiella pneumoniae, 50 µg/mL.

For the compound `Brc1cc2c(c3ncccc13)OCN(CCCc1ccccc1)C2`, in the series with Escherichia coli [1], the minimal inhibitory concentration (MIC) was 50 µg/mL.

Consider `Cc1ccc(CCN2COc3c(cc(F)c4cccnc34)C2)cc1`, for which, in the series on Escherichia coli [1], the MIC worked out at 25 µg/mL.

In the case of `Clc1ccc(OCCN2COc3c(cc(Cl)c4cccnc34)C2)cc1`, in the series on Escherichia coli [1], the MIC is 25 µg/mL.

On to `Fc1cc(CN2COc3c(cc(Br)c4cccnc34)C2)cc(F)c1F`, for which the MIC with Escherichia coli [1] turned out to be 25 µg/mL.

On to `Fc1cc2c(c3ncccc13)OCN(Cc1ccc(C(F)(F)F)cc1)C2`, for which the IC50 at 48 h in series [2] amounted to 46.1 µg/mL (≈ 127 µM); in series [3], 7.93 µg/mL (≈ 21.9 µM). In addition, the MIC in the series on Pseudomonas aeruginosa came to 100 µg/mL; with Escherichia coli [1], 12.5 µg/mL; in the series with Acinetobacter baumannii [4], 12.5 µg/mL; in the series with Klebsiella pneumoniae, 100 µg/mL.

Regarding `Clc1cccc(CN2COc3c(cc(Br)c4cccnc34)C2)c1`, in the series on Escherichia coli [1], the MIC is 25 µg/mL.

`Fc1cc2c(c3ncccc13)OCN(CCc1cccc(Cl)c1)C2`: the MIC in the series on Acinetobacter baumannii [5] turned out to be 25 µg/mL; with Escherichia coli [6], 50 µg/mL; in the series on Acinetobacter baumannii [7], 25 µg/mL; with Escherichia coli [8] it was 50 µg/mL; in the series with Acinetobacter baumannii [9] it was 6.25 µg/mL; with Pseudomonas aeruginosa, 100 µg/mL. Moreover, the MIC in the series on Escherichia coli [1] was 6.25 µg/mL; in the series with Escherichia coli [10], 50 µg/mL; in the series on Acinetobacter baumannii [11] it was 12.5 µg/mL; in the series on Escherichia coli [12], 25 µg/mL; in the series on Acinetobacter baumannii [4], 6.25 µg/mL; with Escherichia coli [13], 50 µg/mL. For the same compound, the values for the MIC with Klebsiella pneumoniae, in the series on Escherichia coli [14] and in the series on Acinetobacter baumannii [15] were 50 µg/mL, 50 µg/mL and 25 µg/mL, respectively. In addition, the results for the IC50 at 48 h in series [2] and in [3] were above 50 µg/mL and 42.3 µg/mL (≈ 123 µM), respectively.

In the case of `Clc1cccc(CN2COc3c(cc(Cl)c4cccnc34)C2)c1`, the IC50 at 48 h in series [2] was above 50 µg/mL; in [3], 23.9 µg/mL (≈ 69.1 µM). In addition, the MIC in the series on Pseudomonas aeruginosa is 100 µg/mL; in the series on Escherichia coli [1] it was 12.5 µg/mL; with Acinetobacter baumannii [4] it was 12.5 µg/mL; in the series on Klebsiella pneumoniae, 50 µg/mL.

`FC(F)(F)c1ccc(CN2COc3c(cc(Cl)c4cccnc34)C2)cc1`: in the series on Escherichia coli [1], the MIC came out at 25 µg/mL.

For `Brc1ccc(CCN2COc3c(cc(Br)c4cccnc34)C2)cc1`, in the series with Escherichia coli [1], the minimal inhibitory concentration (MIC) worked out at 50 µg/mL.

In the case of `FC(F)(F)Oc1ccc(CN2COc3c(cc(Br)c4cccnc34)C2)cc1`, the MIC in the series with Escherichia coli [1] was above 100 µg/mL.

Consider `FC(F)(F)c1ccc(CN2COc3c(cc(Br)c4cccnc34)C2)cc1`, for which the MIC in the series on Escherichia coli [1] is 50 µg/mL.

As for `Clc1ccc(OCCN2COc3c(cc(Br)c4cccnc34)C2)cc1`, the MIC in the series on Escherichia coli [1] was found to be 50 µg/mL.

The term MIC denotes the least concentration at which growth counts as inhibited. As a reminder, the IC50 is the point on the concentration scale where inhibition reaches its midpoint.

These data come from ChEMBL document CHEMBL6153051, “Synthesis, biological evaluation and validation of IMB-881 derivatives as anti-Gram-negative bacterial agents” (Bioorg Med Chem, 2025).
